# Experimental data published in PubChem BioAssay AID588780 (Sanford-Burnham Center for Chemical Genomics, 2011).
# The source made the active and inactive calls.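 The calls were made as follows: active = compounds whose fitted half-maximal concentration in the cell-protection dose series is at or below a set limit; inactive = the rest.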
# Tested on: H9c2 cardiomyocytes, 2-deoxyglucose stress, ATP luminescence, 2 h
# Test: H9c2 cell survival under 2-deoxyglucose stress – uHTS hits, dose response (AID 588780)
row,Compound,IC50
1,COc1ccc(/C=N/NC(=O)c2ccn[nH]2)cc1COc1ccc(Cl)cc1,> 79 µM (inactive)
2,CC(OC(=O)Cc1n[nH]c(=O)c2ccccc12)C(=O)Nc1ccccc1[N+](=O)[O-] (stereo not drawn),49.1 µM (inactive)
3,COc1cccc(NC(=O)COc2cccc3c2CCNC3=O)c1,54.5 µM (inactive)
4,O=c1c(O)c(-c2ccccc2)oc2cc(O)ccc12,> 79 µM (inactive)
5,CC(OC(=O)c1cc2c(ccc3ccccc32)oc1=O)c1nc2ccccc2s1 (stereo not drawn),15.7 µM
6,Cc1cc(NC(=O)COc2nnc(-c3ccccc3)c3ccccc23)no1,> 79 µM (inactive)
7,COc1cc2c(cc1OC)CN(CC(=O)Nc1ccccc1C#N)CC2,44.1 µM (inactive)
8,O=c1c2ccccc2nc(CSc2ncnc3nc[nH]c23)n1-c1ccc(Cl)c(Cl)c1,> 79 µM (inactive)
9,CCOC(=O)CSc1nc2sc(C)c(C)c2c(=O)[nH]1,> 79 µM (inactive)
10,CCOC(=O)C1=C(C)NC(C)=C(C(=O)OCC)C1C(=O)OCC(=O)NC1CCCCC1,6.02 µM
11,COc1ccc(-n2c(/C=C/c3ccc(O)c(OC)c3)nc3ccccc3c2=O)cc1,> 79 µM (inactive)
12,O=C(CN1CCN(Cc2ccccc2)CC1)Nc1ccc([N+](=O)[O-])cc1C(=O)Nc1ccccc1F,35.6 µM (inactive)
13,O=C(CCc1nc2ccccc2c(=O)[nH]1)NNC(=O)c1ccc(Cl)cc1,> 79 µM (inactive)
14,CCOC(=O)c1c2c3c(cccc3n(C)c1=O)C(=O)c1ccccc1-2,> 79 µM (inactive)
15,CCN(CC)S(=O)(=O)c1ccc(N2CCOCC2)c(NC(=O)c2cc(-c3ccccn3)nc3ccccc23)c1,> 79 µM (inactive)
16,COc1ccnc(Oc2ccccc2)c1C(=O)N/C=N/OCc1ccc(F)cc1Cl,> 79 µM (inactive)
17,O=C(CCc1nc2ccccc2c(=O)[nH]1)N1CCN(S(=O)(=O)c2cccc(F)c2)CC1,> 79 µM (inactive)
18,COc1ccc(-c2nn3c(-c4ccccc4)nnc3s2)cc1OC,> 79 µM (inactive)
19,COc1ccc(C(C)=O)cc1COC(=O)Cc1n[nH]c(=O)c2ccccc12,> 79 µM (inactive)
20,Cc1cc(C(=O)COc2ccccc2C(N)=O)c(C)n1C,25.3 µM
21,Cc1cc(Nc2ccccc2C(=O)O)nc2nc3ccccc3c(=O)n12,> 79 µM (inactive)
22,O=C(Cc1n[nH]c(=O)c2ccccc12)NCc1ccc(Cl)cc1,> 79 µM (inactive)
23,COc1cc(C(=O)NCC(=O)N/N=C/c2ccc(-c3cccc([N+](=O)[O-])c3)o2)cc(OC)c1OC,12.5 µM
24,COc1ccc(Br)cc1C(=O)Nc1cccc(NC(=O)c2ccco2)c1,> 79 µM (inactive)

row,Compound,IC50
1,Cn1c(=O)c2c(nc(NCc3ccc4c(c3)OCO4)n2C)n(C)c1=O,> 79 µM (inactive)
2,COc1cc(-c2cc(NC(C)=O)c3ncc(-c4ccc(F)cc4)n3c2)cc(OC)c1OC,> 79 µM (inactive)
3,O=C(CN1CCCCC1)Nc1nc(-c2ccc(F)c(F)c2)cs1,70.7 µM (inactive)
4,CCOC(=O)COc1cccc(C2NC(=O)c3ccccc3O2)c1 (stereo not drawn),> 79 µM (inactive)
5,O=C(CSc1nnc(-c2ccccc2)n1Cc1ccccc1)NNC(=O)c1ccccc1O,> 79 µM (inactive)
6,Cc1noc(C)c1Cn1nc(C(=O)O)c2ccccc2c1=O,> 79 µM (inactive)
7,COc1ccc(-c2cc(C(=O)N(C)Cc3ccc(OC)c(OC)c3OC)c3ccccc3n2)cc1OC,10.4 µM
8,COc1ccc(-c2csc(NC(=O)c3ccc(OCC(=O)N4CCOCC4)c(OC)c3)n2)cc1OC,> 79 µM (inactive)
9,CC(OC(=O)Cc1n[nH]c(=O)c2ccccc12)C(=O)Nc1cc(Cl)cc(Cl)c1 (stereo not drawn),22.7 µM
10,O=C(C[C@H]1C/C=C\CC[C@H](Cc2ccc(F)cc2)C(=O)O[C@@H](c2ccccc2)CNC1=O)N[C@H](CO)Cc1ccccc1,> 79 µM (inactive)
11,Cn1c(C(=O)NCc2cccs2)cc2c(=O)n(C)c3ccccc3c21,> 79 µM (inactive)
12,COc1cc(C(=O)Nc2cc3c(cc2N2CCCCC2)n(C)c(=O)n3C)cc(OC)c1OC,25.4 µM
13,Oc1c(Br)cc(Cl)cc1C=Nc1ccccc1Br,31.6 µM (inactive)
14,COc1ccc2nc(Nc3nc(CSc4nc5ccccc5[nH]4)cc(=O)[nH]3)nc(C)c2c1,> 79 µM (inactive)
15,O=C(Nc1nc(-c2ccccn2)cs1)c1cccc(S(=O)(=O)N2CCOCC2)c1,41.5 µM (inactive)
16,O=C(CN(C(=O)Cn1nnc(-c2cccs2)n1)c1cnc2ccccc2c1)NCC1CCCO1 (stereo not drawn),> 79 µM (inactive)
17,Cc1nc(SCC(=O)NCc2ccc(F)cc2)c2c(=O)n(C)c(=O)n(C)c2n1,> 79 µM (inactive)
18,CCCOc1ccc2[nH]c(C(=O)N/N=C/c3cc(OC)c(OC)c(OC)c3)cc2c1,9.02 µM
19,CC(=O)c1ccc(N2CCN(C(=O)C3CCCN(c4ncnc5c4nc4n5CCCCC4)C3)CC2)cc1 (stereo not drawn),17.5 µM
20,Cc1ccc2c(c1)nc1c3ccccc3nc(-c3ccccc3N)n21,> 79 µM (inactive)
21,NS(=O)(=O)c1ccc(CCNc2ccn3nc(-c4ccc(OCCN5CCOCC5)cc4)cc3n2)cc1,37.3 µM (inactive)
22,COc1cccc(/C=N/Nc2ncnc3scc(-c4ccccc4)c23)c1OC,> 79 µM (inactive)
23,O=C(COC(=O)Cn1[nH]c(=O)c2ccccc2c1=O)NNC(=O)c1ccccc1,> 79 µM (inactive)
24,COc1cc2[nH]c(=O)n3nc(-c4ccccc4)nc3c2cc1OC,> 79 µM (inactive)
